Assay results reported in US11725012B2, “Imidazo[1,5-a]pyrazine derivatives as PI3K δ inhibitors” (priority 2016, dated 2023).

Tests used:
Type in all cases: biochemical
[1] = molecular target: recombinant PI3K (p110δ/p85α) (Homo sapiens, UniProt O00329); assay: PI3Kδ ADP-Glo kinase assay; settings: read-out: PI3Kδ Enzyme activity IC50
Procedure: Compounds disclosed herein were tested for inhibition of PI3Kδ kinase activity using commercial ADP-Glo™ Kinase Assay (Promega Corporation) and following the manufacture's instruction. Briefly, recombinant PI3K (p110δ/p85α) enzyme, lipid kinase substrate and a serial dilution of compounds disclosed herein were incubated for 0.5 hr at room temperature. ATP was added to initiate the kinase reaction. After incubation for 1 hr at room temperature, ADP-Glo™ reagent was added to terminate the kinase reaction and deplete the remaining ATP. After incubation for 1 hr at room temperature, kinase detection reagent was added to simultaneously convert ADP to ATP and allow the newly synthesized ATP to be measured using a luciferase/luciferin reaction. After incubation for 0.5 hr at room temperature, the luminescence generated was measured on a PHERAstar FS plate reader (BMG LABTECH), The residual enzyme activity in presence of increasing concentrations of compounds was calculated based on the luminescence. The IC50 for each compound was derived from fitting the data to the four-parameter logistic equation by Graphpad Prism software.

PI3K (p110γ) = PI3K (p110γ) (Homo sapiens, UniProt P48736); assay: PI3Kγ ADP-Glo kinase assay; settings: for inhibition at 0.5 µM: read-out: PI3Kγ max inhibition (%) at 0.5 μM; for IC50: read-out: PI3Kγ Enzyme activity IC50
[2] = molecular target: recombinant PI3K (p110α/p85α) (Homo sapiens, UniProt P42336); assay: PI3Kα ADP-Glo kinase assay; settings: for inhibition at 0.5 µM: read-out: PI3Kα max inhibition (%) at 0.5 μM; for IC50: read-out: PI3Kα Enzyme activity IC50
Sequence of recombinant PI3K (p110α/p85α) (P42336 whole entry): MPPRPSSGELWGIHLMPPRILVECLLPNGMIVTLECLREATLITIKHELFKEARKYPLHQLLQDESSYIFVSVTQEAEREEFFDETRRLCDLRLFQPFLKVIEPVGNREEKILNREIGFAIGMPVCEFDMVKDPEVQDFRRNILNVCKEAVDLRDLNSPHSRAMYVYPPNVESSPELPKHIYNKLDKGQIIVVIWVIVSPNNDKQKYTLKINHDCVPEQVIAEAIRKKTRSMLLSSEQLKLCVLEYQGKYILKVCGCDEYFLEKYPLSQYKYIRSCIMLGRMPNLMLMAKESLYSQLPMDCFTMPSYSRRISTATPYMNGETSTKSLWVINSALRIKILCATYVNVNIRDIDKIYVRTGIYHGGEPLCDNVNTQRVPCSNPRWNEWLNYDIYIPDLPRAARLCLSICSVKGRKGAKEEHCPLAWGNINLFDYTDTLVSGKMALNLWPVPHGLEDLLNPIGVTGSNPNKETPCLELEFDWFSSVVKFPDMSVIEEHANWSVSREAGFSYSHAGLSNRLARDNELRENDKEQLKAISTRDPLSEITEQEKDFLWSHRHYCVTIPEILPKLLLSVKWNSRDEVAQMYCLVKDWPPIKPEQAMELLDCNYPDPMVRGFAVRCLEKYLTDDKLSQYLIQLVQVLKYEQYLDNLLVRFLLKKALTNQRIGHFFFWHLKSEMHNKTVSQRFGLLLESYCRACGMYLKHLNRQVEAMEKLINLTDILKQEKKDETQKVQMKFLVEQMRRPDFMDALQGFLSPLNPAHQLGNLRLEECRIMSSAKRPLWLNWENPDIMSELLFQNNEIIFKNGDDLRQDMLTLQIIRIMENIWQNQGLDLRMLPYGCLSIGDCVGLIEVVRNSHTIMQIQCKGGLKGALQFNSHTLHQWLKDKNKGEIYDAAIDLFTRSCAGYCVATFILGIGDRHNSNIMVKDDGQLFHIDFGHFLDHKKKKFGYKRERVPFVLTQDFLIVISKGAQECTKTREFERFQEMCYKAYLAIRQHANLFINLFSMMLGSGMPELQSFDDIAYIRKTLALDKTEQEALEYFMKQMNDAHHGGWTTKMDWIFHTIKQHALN
Sequence of recombinant PI3K (p110α/p85α) (P27986 whole entry partner): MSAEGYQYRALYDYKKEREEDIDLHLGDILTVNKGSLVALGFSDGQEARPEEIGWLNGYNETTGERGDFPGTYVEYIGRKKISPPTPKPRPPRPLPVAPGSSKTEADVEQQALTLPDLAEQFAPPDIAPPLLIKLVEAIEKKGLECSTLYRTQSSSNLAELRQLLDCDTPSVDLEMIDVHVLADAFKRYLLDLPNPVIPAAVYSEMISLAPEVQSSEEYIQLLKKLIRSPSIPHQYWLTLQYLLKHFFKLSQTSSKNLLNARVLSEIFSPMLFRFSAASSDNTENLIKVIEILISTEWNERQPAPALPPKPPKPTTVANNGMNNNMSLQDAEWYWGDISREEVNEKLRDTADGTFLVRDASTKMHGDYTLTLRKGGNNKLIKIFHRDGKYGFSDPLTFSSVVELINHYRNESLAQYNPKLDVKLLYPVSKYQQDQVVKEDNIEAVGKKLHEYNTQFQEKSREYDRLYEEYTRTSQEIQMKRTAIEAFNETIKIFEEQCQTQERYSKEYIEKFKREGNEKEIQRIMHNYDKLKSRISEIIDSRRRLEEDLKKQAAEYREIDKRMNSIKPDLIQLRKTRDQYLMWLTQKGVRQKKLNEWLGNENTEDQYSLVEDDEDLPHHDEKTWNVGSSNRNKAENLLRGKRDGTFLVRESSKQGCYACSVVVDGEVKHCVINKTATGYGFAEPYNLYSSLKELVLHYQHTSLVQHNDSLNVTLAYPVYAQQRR

Sequence of recombinant PI3K (p110δ/p85α) (O00329 whole entry): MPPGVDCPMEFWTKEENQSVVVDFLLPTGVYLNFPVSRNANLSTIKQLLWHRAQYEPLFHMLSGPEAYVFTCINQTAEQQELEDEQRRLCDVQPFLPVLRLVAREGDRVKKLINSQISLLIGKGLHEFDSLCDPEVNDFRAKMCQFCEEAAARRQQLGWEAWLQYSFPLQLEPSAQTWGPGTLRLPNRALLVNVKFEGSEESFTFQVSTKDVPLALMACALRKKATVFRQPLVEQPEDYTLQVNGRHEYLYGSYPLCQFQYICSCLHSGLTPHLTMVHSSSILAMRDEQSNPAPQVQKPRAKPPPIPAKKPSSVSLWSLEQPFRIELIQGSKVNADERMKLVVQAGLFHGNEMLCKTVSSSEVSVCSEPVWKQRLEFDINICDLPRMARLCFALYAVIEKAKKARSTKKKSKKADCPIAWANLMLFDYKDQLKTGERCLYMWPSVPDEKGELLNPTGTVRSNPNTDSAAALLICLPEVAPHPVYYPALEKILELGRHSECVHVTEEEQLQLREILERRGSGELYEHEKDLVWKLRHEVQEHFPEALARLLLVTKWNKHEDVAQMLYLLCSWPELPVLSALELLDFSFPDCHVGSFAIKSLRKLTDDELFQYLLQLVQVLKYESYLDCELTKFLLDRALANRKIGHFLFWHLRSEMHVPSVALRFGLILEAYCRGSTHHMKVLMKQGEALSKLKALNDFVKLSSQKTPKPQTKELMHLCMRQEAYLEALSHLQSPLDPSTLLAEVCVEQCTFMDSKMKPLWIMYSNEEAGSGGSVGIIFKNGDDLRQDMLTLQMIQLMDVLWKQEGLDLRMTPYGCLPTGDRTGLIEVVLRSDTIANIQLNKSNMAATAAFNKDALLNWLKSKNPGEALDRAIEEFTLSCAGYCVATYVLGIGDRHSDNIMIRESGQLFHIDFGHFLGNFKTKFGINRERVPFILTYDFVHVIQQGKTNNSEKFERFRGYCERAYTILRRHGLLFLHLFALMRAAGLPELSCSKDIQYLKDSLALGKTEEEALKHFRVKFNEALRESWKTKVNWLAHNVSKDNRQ
Sequence of recombinant PI3K (p110δ/p85α) (P27986 whole entry partner): as the sequence (P27986 whole entry partner) above
Sequence of PI3K (p110γ) (P48736 whole entry): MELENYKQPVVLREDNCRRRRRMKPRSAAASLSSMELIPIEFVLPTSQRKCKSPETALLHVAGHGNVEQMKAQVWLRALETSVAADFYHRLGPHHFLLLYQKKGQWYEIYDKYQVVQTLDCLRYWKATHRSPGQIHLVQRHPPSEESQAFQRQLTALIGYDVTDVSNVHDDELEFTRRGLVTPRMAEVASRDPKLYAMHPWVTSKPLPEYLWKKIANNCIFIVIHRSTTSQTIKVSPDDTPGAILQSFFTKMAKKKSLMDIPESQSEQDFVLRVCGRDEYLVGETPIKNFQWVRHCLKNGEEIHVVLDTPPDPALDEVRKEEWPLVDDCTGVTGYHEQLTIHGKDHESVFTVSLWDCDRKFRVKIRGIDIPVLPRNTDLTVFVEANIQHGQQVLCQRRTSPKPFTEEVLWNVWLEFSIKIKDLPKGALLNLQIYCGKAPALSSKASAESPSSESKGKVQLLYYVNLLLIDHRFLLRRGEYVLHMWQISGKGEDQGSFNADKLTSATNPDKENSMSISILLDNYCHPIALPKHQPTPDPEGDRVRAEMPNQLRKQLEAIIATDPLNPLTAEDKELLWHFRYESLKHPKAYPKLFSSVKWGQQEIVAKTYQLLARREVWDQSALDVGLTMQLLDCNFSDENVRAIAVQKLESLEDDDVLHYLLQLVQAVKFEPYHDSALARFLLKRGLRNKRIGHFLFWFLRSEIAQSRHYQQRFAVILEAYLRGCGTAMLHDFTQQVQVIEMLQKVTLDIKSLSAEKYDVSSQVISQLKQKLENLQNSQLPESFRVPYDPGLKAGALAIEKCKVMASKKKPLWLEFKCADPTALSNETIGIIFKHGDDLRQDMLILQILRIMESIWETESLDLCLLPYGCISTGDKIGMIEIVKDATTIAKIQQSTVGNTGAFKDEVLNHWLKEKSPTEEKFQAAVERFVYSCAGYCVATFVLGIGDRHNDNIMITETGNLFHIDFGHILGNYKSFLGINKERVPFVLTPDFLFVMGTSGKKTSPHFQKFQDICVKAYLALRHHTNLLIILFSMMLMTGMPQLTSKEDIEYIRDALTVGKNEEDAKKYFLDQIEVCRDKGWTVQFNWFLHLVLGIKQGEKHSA

Compound	IC50 [1] [nM]	also measured
CCOc1c(C(C)c2nc(-c3ccc(OC)cc3)c3c(N)nccn23)cc(Cl)c(C)c1-c1ccc(OC)cc1 (stereo not shown) [Compound 44, 3-(1-(5-chloro-2-ethoxy-4′-methoxy-6-methyl-[151′-biphenyl]-3-yl)ethyl)-1-(4-methoxyphenyl)imidazo[1,5-a]pyrazin-8-amine]	380	–
CC(C)Oc1c(C(C)c2nc(Cl)c3c(N)nccn23)cc(Cl)c(F)c1-c1ccc(C(=O)O)nc1 (single isomer, unassigned) [Compound 18B]	26	–
COc1c(C(C)c2nc(Cl)c3c(N)nccn23)cc(Cl)c(C)c1-c1cccnc1 (stereo not shown) [Compound 6, 1-chloro-3-(1-(5-chloro-2-methoxy-4-methyl-3-(pyridin-3-yl)phenyl)ethyl)imidazo[1,5-a]pyrazin-8-amine]	2	inhibition at 0.5 µM (PI3K (p110γ)): 52%; inhibition at 0.5 µM [2]: 34%
COc1c(C(C)c2nc(-c3cccc(O)c3)c3c(N)nccn23)cc(Cl)c(C)c1-c1cccnc1 (stereo not shown) [Compound 4, 3-(8-amino-3-(1-(5-chloro-2-methoxy-4-methyl-3-(pyridin-3-yl)phenyl)ethyl)imidazo[1,5-a]pyrazin-1-yl)phenol]	7.5	inhibition at 0.5 µM (PI3K (p110γ)): 9%; inhibition at 0.5 µM [2]: 20%
COc1c(C(C)c2nc(-c3ccccc3)c3c(N)nccn23)cc(Cl)c(C)c1-c1cccnc1 (stereo not shown) [Compound 3, 3-(1-(5-chloro-2-methoxy-4-methyl-3-(pyridin-3-yl)phenyl)ethyl)-1-phenylimidazo[1,5-a]pyrazin-8-amine]	150	–
COc1c(C(C)c2nc(C)c3c(N)nccn23)cc(Cl)c(C)c1-c1cccnc1 (stereo not shown) [Compound 52, 3-(1-(5-chloro-2-methoxy-4-methyl-3-(pyridin-3-yl)phenyl)ethyl)-1-methyl imidazo[1,5-a]pyrazin-8-amine]	7.7	inhibition at 0.5 µM (PI3K (p110γ)): -11%; inhibition at 0.5 µM [2]: 6%
CCOc1c(C(C)c2nc(Cl)c3c(N)nccn23)cc(Cl)c(F)c1C1CCOCC1 (single isomer, unassigned) [Compound 49B, 1-chloro-3-(1-(5-chloro-2-ethoxy-4-fluoro-3-(tetrahydro-2H-pyran-4-yl)phenyl)ethyl)imidazo[1,5-a]pyrazin-8-amine]	26	–
Cc1nn(C(C)c2cc(Cl)c(C#N)c(=O)n2-c2ccccc2)c2ncnc(N)c12 (stereo not shown) [Compound 55, 6-(1-(4-amino-3-methyl-1H-pyrazolo[3,4-d]pyrimidin-1-yl)ethyl)-4-chloro-2-oxo-1-phenyl-1,2-dihydropyridine-3-carbonitrile]	450	–
CCOc1c(C(C)c2nc(Cl)c3c(N)nccn23)cc(Cl)c(C)c1N1CCOCC1 (single isomer, unassigned) [Compound 51B, 1-chloro-3-(1-(5-chloro-2-ethoxy-4-methyl-3-morpholinophenyl)ethyl)imidazo[1,5-a]pyrazin-8-amine]	320	–
CCOc1c([C@@H](C)c2nc(Cl)c3c(N)nccn23)cc(Cl)c(F)c1-c1ccc(C(F)(F)F)nc1 [Compound 41B]	350	–
COc1c(C(C)c2nc(Br)c3c(N)nccn23)cc(Cl)c(C)c1-c1cccnc1 (stereo not shown) [Compound 2, 1-bromo-3-(1-(5-chloro-2-methoxy-4-methyl-3-(pyridin-3-yl)phenyl)ethyl)imidazo[1,5-a]pyrazin-8-amine]	1.5	inhibition at 0.5 µM (PI3K (p110γ)): 37%; IC50 [2]: 560 nM
CC(C)Oc1c([C@@H](C)c2nc(Cl)c3c(N)nccn23)cc(Cl)c(F)c1-c1ccc(C(F)(F)F)nc1 [Compound 40B]	150	–
CCOc1c([C@@H](C)c2nc(Cl)c3c(N)nccn23)cc(Cl)c(C)c1-c1ccc(Cl)nc1 [Compound 27B]	500	–
CCOc1c([C@@H](C)c2nc(Cl)c3c(N)nccn23)cc(Cl)c(C)c1-c1ccc(C)nc1 [Compound 8B]	170	–
COc1c(C(C)c2nc(Br)c3c(N)nccn23)cc(Cl)c(C)c1-c1c(C)noc1C (stereo not shown) [Compound 21, 1-bromo-3-(1-(5-chloro-3-(3,5-dimethylisoxazol-4-yl)-2-methoxy-4-methylphenyl)ethyl)imidazo[1,5-a]pyrazin-8-amine]	3.3	IC50 (PI3K (p110γ)): 1500 nM; IC50 [2]: 2000 nM
CCOc1c(C(C)c2nc(Cl)c3c(N)nccn23)cc(Cl)c(F)c1C1CCOCC1 (stereo not shown) [Compound 49, 1-chloro-3-(1-(5-chloro-2-ethoxy-4-fluoro-3-(tetrahydro-2H-pyran-4-yl)phenyl)ethyl)imidazo[1,5-a]pyrazin-8-anine]	3.1	–
CC(C)Oc1c([C@@H](C)c2nc(Cl)c3c(N)nccn23)cc(Cl)c(F)c1-c1ccc(C(N)=O)nc1 [Compound 17A]	91	–
CCOc1c([C@@H](C)c2nc(Cl)c3c(N)nccn23)cc(Cl)c(F)c1-c1ccc(C(F)(F)F)nc1OC [Compound 43B]	> 1000	–
Cc1c(Cl)cc([C@@H](C)c2nc(Br)c3c(N)nccn23)c(OC(C)C)c1-c1ccc(C(F)(F)F)nc1 [Compound 38B]	2100	–
Cc1nc(C(C)c2cc(Cl)c(F)c(-c3ccc(C#N)nc3)c2OC(C)C)n2ccnc(N)c12 (single isomer, unassigned) [Compound 59B, 5-(3-(1-(8-amino-1-methylimidazo[1,5-a]pyrazin-3-yl)ethyl)-5-chloro-6-fluoro-2-isopropoxyphenyl)picolinonitrile]	240	–
CCOc1c(C(C)c2nc(Br)c3c(N)nccn23)cc(Cl)c(C)c1-c1ccc(C)nc1 (stereo not shown) [Compound 7, 1-bromo-3-(1-(5-chloro-2-ethoxy-4-methyl-3-(6-methylpyridin-3-yl)phenyl)ethyl) imidazo[1,5-a]pyrazin-8-amine]	1.9	IC50 (PI3K (p110γ)): 200 nM; IC50 [2]: 420 nM
CCCOc1c([C@@H](C)c2nc(Cl)c3c(N)nccn23)cc(Cl)c(F)c1-c1ccc(C(F)(F)F)nc1 [Compound 42B]	330	–
CCOc1c(C(C)c2nc(C)c3c(N)nccn23)cc(F)c(Cl)c1-c1ccc(C(F)(F)F)nc1 (stereo not shown) [Compound 34, 3-(1-(4-chloro-2-ethoxy-5-fluoro-3-(6-(trifluoromethyl)pyridin-3-yl)phenyl)ethyl)-1-methylimidazo[1,5-a]pyrazin-8-amine]	43	–
CCOc1c(C(C)c2nc(Br)c3c(N)nccn23)cc(Cl)c(C)c1-c1ccc(Cl)cc1 (stereo not shown) [Compound 9, 1-bromo-3-(1-(4′,5-dichloro-2-ethoxy-6-methyl-[1,1′-biphenyl]-3-yl)ethyl)imidazo[1,5-a]pyrazin-8-amine]	100	–
CC(C)Oc1c([C@@H](C)c2nc(Cl)c3c(N)nccn23)cc(Cl)c(F)c1-c1ccc(C(=O)N(C)C)nc1 [Compound 16B]	62	–
COc1c(C(C)c2nc(C3CC3)c3c(N)nccn23)cc(Cl)c(C)c1-c1cccnc1 (stereo not shown) [Compound 53, 3-(1(5-chloro-2-methoxy-4-methyl-3-(pyridin-3-yl)phenyl)ethyl)-1-cyclopropyl imidazo[1,5-a]pyrazin-8-amine]	1900	–
CC(C)Oc1c(C(C)c2nc(Cl)c3c(N)nccn23)cc(Cl)c(F)c1C1CNC(=O)C1 (single isomer, unassigned) [Compound 48D, 4-(3-(1-(8-amino-1-chloroimidazo[1,5-a]pyrazin-3-yl)ethyl)-5-chloro-6-fluoro-2-isopropoxyphenyl)pyrrolidin-2-one]	6.8	–
CC(C)Oc1c(C(C)c2nc(Cl)c3c(N)nccn23)cc(Cl)c(F)c1C1CNC(=O)C1 (single isomer, unassigned) [Compound 48C, 4-(3-(1-(8-amino-1-chloroimidazo[1,5-a]pyrazin-3-yl)ethyl)-5-chloro-6-fluoro-2-isopropoxyphenyl)pyrrolidin-2-one]	160	–
